For one data set, the system named is adjuvant arthritis. As to the kind of experiment: Anti-adjuvant-arthritic activity. The following applies: 10 mg/kg orally once a day for 14 days; volume of left hind limb (not injected); day of reading not given. Type of data set: in vivo, SD rats. The procedure:
Anti-Adjuvant-Arthritic Activity
Male SD origin male-rats (6 weeks old, CLEA Japan, 1 group: n=7) were used. The adjuvant arthritis method was conducted according to the method of Newbould B. B. et. al., (Brit. J. Pharmacol. Chemother., vol. 21, p. 127, 1963). Complete Freund's adjuvant (a suspension of killed tubercule bacillus in liquid paraffin at a concentration of 0.5%, 0.05 mL) was injected into the right hind limb footpad intracutaneouly to induce multiple arthritis. Samples were administered orally (10 mg/kg, b.w.), once a day for 14 days from the day before the injection day 0 to day 13. Volume of the left hind limb (not injected) was determined by the foot-volume measurement apparatus manufactured by Ugo Basile, on the day just before the adjuvant shot (Day 0), Day 10 and Day 14, and repression rate (%) was calculated comparing the values between the sample group and the control group.

For data set [1], the system named is mucosa of small intestine. As to the kind of experiment: Disorder of mucosa of small intestine. Type of data set: in vivo, SD rats. The following applies: 100 mg/kg orally, freely fed rats, 6 hours after dosing. The protocol: Disorder of Mucosa of Small Intestine Male SD origin male-rats (7 weeks old, CLEA Japan) were used. To the rats freely fed, samples were administered orally (5 mL/kg, b.w.). After 5.5 hours from the administration, Evan's Blue (0.5% Evan's Blue/saline) was injected (1 mL/rat) intravenously under no anesthesia. After 30 minutes from the shot, the intestine was removed by celiotomy and the area thereof facing mesentery was cut open. After removal of intestinal content, the spots in the intestine dyed by Evan's Blue were measured under a stereomicroscope, and the total length (mm) of the spots was determined by a counter and recorded.

In a further data set the target is T1, human COX-1 (Homo sapiens, UniProt P23219).
T1 construct: made in house; host or cells: Sf-21 insect cells (recombinant baculovirus BAC-COX1, pFASTBAC1); microsome fraction
T1 sequence (P23219 24-599): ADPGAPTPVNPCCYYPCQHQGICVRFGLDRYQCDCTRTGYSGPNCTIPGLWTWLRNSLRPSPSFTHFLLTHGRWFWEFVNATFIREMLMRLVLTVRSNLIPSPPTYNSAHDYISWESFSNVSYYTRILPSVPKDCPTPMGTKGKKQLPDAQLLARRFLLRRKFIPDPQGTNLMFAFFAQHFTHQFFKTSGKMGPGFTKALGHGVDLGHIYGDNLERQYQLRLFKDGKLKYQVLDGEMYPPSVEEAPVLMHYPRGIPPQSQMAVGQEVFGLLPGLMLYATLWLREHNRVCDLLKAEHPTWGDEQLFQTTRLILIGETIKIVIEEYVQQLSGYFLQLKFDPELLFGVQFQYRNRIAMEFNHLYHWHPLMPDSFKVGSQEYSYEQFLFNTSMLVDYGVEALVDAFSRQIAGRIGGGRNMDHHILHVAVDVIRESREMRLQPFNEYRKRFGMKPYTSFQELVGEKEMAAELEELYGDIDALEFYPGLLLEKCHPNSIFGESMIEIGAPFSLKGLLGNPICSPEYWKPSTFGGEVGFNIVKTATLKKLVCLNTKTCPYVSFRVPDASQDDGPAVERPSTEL
In words: Determination of COX-1 inhibitory activity (microsome fraction, chemiluminescence). The following applies: microsome fraction 40 μg, arachidonic acid, 37° C. 25 minutes preincubation; read-out: Repression rate IC50 (μM) COX-1. In kind it is biochemical. The procedure: A 1.8 kb DNA fragment containing human COX-1 cDNA (FASEB J., vol. 5 (9), p. 2304-2312 (1991)) prepared by the PCR method was inserted into plasmid pFASTBAC1 (CIBCOBRL) to obtain a plasmid pFBCOX1.
Using the plasmid pFBCOX1 and BAC-TO-BAC Baculovirus Expression System (GIBCOBRL), a virus stock BAC-COX1 of the recombinant baculovirus was prepared.
Sf-21 cells were inoculated in 125 mL of Sf-900 II SFM medium (GIBCOBRL) at a concentration of 1×10^6 cells/mL, and the medium was incubated at 27° C. for 24 hours. 0.75 mL of the virus stock BAC-COX1 of the recombinant baculovirus was added thereto, and the mixture was incubated further for 72 hours. The cells were separated from the medium by centrifugation (3000 rpm, 10 min), and washed with PBS twice. The cells were suspended in 10 mL of a Lysis buffer (0.1M Tris-HCl (pH 7.4), 5 mM EDTA), and were treated with a homogenizer (POLYTRON) three times at 20000 rpm for 20 seconds so that the cells were crushed. The supernatant obtained after centrifugation (2000 rpm, 10 minutes) was further centrifuged (40000 rpm, 45 minutes) to give a precipitate, which was resuspended in a Lysis buffer (0.1M Tris-HCl (pH 7.4), 5 mM EDTA), and the suspension was stored at −80° C.
(§1) Determination of COX-1 and COX-2 Inhibitory Activities
(§2) To a mixture of 20 μL of a reaction buffer previously concentrated 10 times (1M Tris-HCl (pH8.0), 50 mM EDTA, 1.0% Tween 20, 50 mM luminol, 100 μM hematin), 20 μL of the microsome fractions (COX-1: 40 μg, COX-2: 20 μg), and 55 μL of distilled water, a sample compound dissolved in DMF (5 μL) was added, and the mixture was left at 37° C. for 25 minutes. The reaction was started by the addition of 20 μM arachidonic acid (100 μL), and chemiluminescence amount during the 10-second period after the addition of arachidonic acid was determined by the use of Lumistar (BMG Lab technologies, GmbH). The inhibition rate was calculated, regarding that the enzyme activity when DMF ([…]) was added was 100%, and the enzyme activity when 4 mM flurbiprofen (5 μL) was added was 0%.

Another data set has as its target T2, human COX-2 (Homo sapiens, UniProt P35354).
T2 construct: made in house; host or cells: Sf-21 insect cells (recombinant baculovirus BAC-COX2, pFASTBAC1); microsome fraction
T2 sequence (P35354 18-604): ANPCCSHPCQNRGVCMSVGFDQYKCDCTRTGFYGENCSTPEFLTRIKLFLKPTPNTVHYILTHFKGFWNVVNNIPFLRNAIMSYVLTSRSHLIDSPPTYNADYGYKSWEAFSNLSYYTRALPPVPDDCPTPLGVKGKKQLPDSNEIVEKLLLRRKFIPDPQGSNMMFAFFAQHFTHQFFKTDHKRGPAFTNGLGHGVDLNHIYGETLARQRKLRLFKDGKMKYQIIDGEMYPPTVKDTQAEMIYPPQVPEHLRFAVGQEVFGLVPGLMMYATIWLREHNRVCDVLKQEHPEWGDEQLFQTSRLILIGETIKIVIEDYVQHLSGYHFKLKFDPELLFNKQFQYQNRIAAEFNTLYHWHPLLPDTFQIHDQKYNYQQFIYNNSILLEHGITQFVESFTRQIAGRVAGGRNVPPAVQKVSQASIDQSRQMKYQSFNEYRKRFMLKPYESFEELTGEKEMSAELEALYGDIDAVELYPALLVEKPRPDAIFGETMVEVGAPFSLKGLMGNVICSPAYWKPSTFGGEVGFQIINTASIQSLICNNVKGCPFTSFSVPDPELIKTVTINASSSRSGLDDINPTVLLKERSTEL
In words: Determination of COX-2 inhibitory activity (microsome fraction, chemiluminescence). Type of data set: biochemical. To be noted: microsome fraction 20 μg, arachidonic acid, 37° C. 25 minutes preincubation; read-out: Repression rate IC50 (μM) COX-2. The procedure: A 1.8 kb DNA fragment containing human COX-2 cDNA (Proc. Natl. Acad. Sci. U.S.A., vol. 89 (16), p. 7384-7388 (1992)) prepared by the PCR method was inserted into plasmid pFASTBAC1 (CIBCOBRAL) to obtain a plasmid pFBCOX2.
Using the plasmid pFBCOX2 and BAC-TO-BAC Baculovirus Expression System (GIBCOBRAL), a virus stock BAC-COX2 of the recombinant baculovirus was prepared.
Sf-21 cells were inoculated in 125 mL of LSf-900 II SFM medium (GIBCOBRAL) at a concentration of 1×10^6 cells/mL, and the medium was incubated at 27° C. for 24 hours. 0.75 mL of the virus stock BAC-COX2 of the recombinant baculovirus was added thereto, and was incubated further for 72 hours. The cells were separated from the medium by centrifugation (3000 rpm, 10 min), and washed with PBS twice. The cells were suspended in 10 mL of a Lysis buffer (0.1M Tris-HCl (pH 7.4), 5 mM EDTA), and were treated with a homogenizer (POLYTRON), three times at 20000 rpm for 20 seconds so that the cells were crushed. The supernatant thus obtained after centrifugation (2000 rpm, 10 minutes) was further centrifuged (40000 rpm, 45 minutes) to obtain a precipitate, which was resuspended in a Lysis buffer (0.1M Tris-HCl (pH 7.4), 5 mM EDTA), and the suspension was stored at −80° C.
as §1, §2

In data set [2] the test system is carrageenin edema of right hind limb plantar. In words: Anti-inflammatory activity, carrageenin edema method. Type of data set: in vivo, SD-rats. The following applies: po, 10 mg/kg orally. The procedure: Anti-Inflammatory Activity
Male SD-rats (6 weeks old, CLEA Japan) were used (1 group, n=6). The Carrageenin edema method was performed according to the method of Winter et. al., (Proc. Soc. Exp. Biol. Med., vol. 111, p. 544-547, 1962). After the volume of right hind limb plantar of the rat was determined, a sample was orally administered (1.0 mL, b.w.), and immediately water was orally administered in an amount of 5 mL/rat. Meanwhile, only the solvent of the sample was orally administered to rats in control. After 1 hour, a solution of 1% carrageenin in saline (0.05 mL) was injected into the right hind limb plantar subcutaneously to induce edema. After 2 and 3 hours later from the injection, volumes of the right hind limb plantar were determined. The repression rate (%) of the sample was calculated by comparing the difference of the volumes of the plantar before the carrageenin shot and 2 and 3 hours after the shot between the sample groups and the control groups.
On the technique in general: In the carrageenan paw model, swelling and tenderness develop within hours.

In data set [3] the test system is acetic acid induced rising and stretching. In words: Analgesic activity, acetic acid rising method. The following applies: po, 20 min; 10 mg/kg orally, 30 minutes before 0.6% acetic acid i.p.; number of rising and stretching in 20 minutes; read-out: Repression rate (%) Dosage 10 mg/kg. Type of data set: in vivo, ICR-mice. The procedure: Analgesic Activity Acetic Acid Rising Method Male ICR-mice (5 weeks old, CLEA Japan) were used (1 group, n=10), and a sample was orally administered (0.2 mL/10 g, b.w.). After 30 minutes, 0.6% acetic acid solution was injected to mice intraperitoneally (0.1 mL/10 g, b.w.), and the mice were immediately transferred into an observation cage made of a transparent acrylic resin. The number of rising and stretching during the following period of 20 minutes was counted. The repression rate (%) was calculated by comparing the average numbers between the sample groups and the control groups.

The test system of a further data set is yeast-induced pyrexia. In words: Antipyretic activity in yeast-induced pyrexia. The following applies: 10 mg/kg orally; maximum difference in body temperature vs control over 6 hours. In kind it is in vivo, SD rats. The procedure:
Antipyretic Activity in Yeast-Induced Pyrexia Antipyretic activity was determined using male SD origin male-rats (7 weeks old, CLEA Japan, 1 group: n=6), according to the method of winter et. al. (J. Pharmacol. Exp. Ther., vol. 138, p. 405, 1963). Before 16 hours from measurement of body temperature, a suspension of 15% yeast in saline was injected subcutaneously (10 mL/kg, b.w.) into the rats to induce fever, and simultaneously supply of food was terminated while water was made available all the time. Each of the rats was raised separately. After 16 hours from the yeast shot, a thermistor terminal was inserted at an about 4 cm depth into rectum every hour, and the body temperatures after 30 seconds were recorded. After 18 hours, rats developing fevers consistently were selected, and a sample was orally administered to the rats (5 mL/kg, b.w.), while to the control, only the solvent was administered. After the administration, body temperatures were measured every hour for a period of 6 hours, and the maximum difference in body temperature between the rats in the sample group and in the control group were determined as Δ (° C.).

Molecules are shown by their SMILES. Like-named read-outs stand apart in the source and are kept apart here. Marks after values point to notes of the source that are not given here.

Broadly, the melting point is the temperature, or range, at which the solid turns liquid. `Cc1nn(-c2ccccn2)c2[nH]c3ccc(F)cc3c(=O)c12` [Example 2-81, 6-Fluoro-3-methyl-1-(2-pyridinyl)-1,9-dihydro-4H-pyrazolo[3,4-b]quinolin-4-one] had a melting point of 278 to 280 °C. For the same compound, the “Repression rate (%) Dosage 10 mg/kg” value with adjuvant arthritis was 56%.

The compound `Cc1nn(-c2ccccn2)c2[nH]c3cc(F)ccc3c(=O)c12` [Example 2-83, 7-Fluoro-3-methyl-1-(2-pyridinyl)-1,9-dihydro-4H-pyrazolo[3,4-b]quinolin-4-one] showed a melting point of 260 to 261 °C. Further, the “Repression rate (%) Dosage 10 mg/kg” value with adjuvant arthritis is on record as 65* %.

For `Cc1nn(-c2ccccn2)c2[nH]c3ccc(C(F)(F)F)cc3c(=O)c12` [Example 2-40, 3-Methyl-1-(2-pyridinyl)-6-(trifluoromethyl)-l,9-dihydro-4H-pyrazolo[3,4-b]quinolin-4-one], in data set [1], the “Total length of dyed spots (mm)” value is 0 (100 mg/kg) mm.

For orientation: IC50 means the point on the concentration scale where inhibition reaches its midpoint. For the compound `COC(=O)c1cccc2[nH]c3c(c(C)nn3-c3ccccn3)c(=O)c12` [Example 2-61, Methyl 3-methyl-4-oxo-1-(2-pyridinyl)-4,9-dihydro-1H-pyrazolo[3,4-b]quinoline-5-carboxylate], the melting point is 241 to 244 °C. For the same compound, the IC50 on human COX-1 is 2 µM. On human COX-2, the IC50 is 44 µM. Moreover, the inhibition in vivo at 10 mg/kg in data set [2] (2 hr after carrageenin injection, read-out: Repression rate (%) Dosage 10 mg/kg 2 hr later) came to 36%. Moreover, the inhibition in vivo at 10 mg/kg in data set [2] (3 hr after carrageenin injection, read-out: Repression rate (%) Dosage 10 mg/kg 3 hr later) was 28%. Moreover, in data set [3], the inhibition in vivo at 10 mg/kg worked out at 75%.

As to `Cc1nn(-c2ccccn2)c2[nH]c3ccccc3c(=O)c12` [Example 2-12, 3-Methyl-1-(2-pyridinyl)-1,9-dihydro-4H-pyrazolo[3,4-b]quinolin-4-one], the “Total length of dyed spots (mm)” value in data set [1] is on record as 0 (100 mg/kg) mm.

In turn, `Cc1nn(-c2ccccn2)c2nc3ccccc3c(OC(C)C)c12` [Example 2-18, 4-Isopropoxy-3-methyl-1-(2-pyridinyl)-1H-pyrazolo[3,4-b]quinoline] registered a melting point of 93 to 96 °C. The “Δ (° C.) Dosage 10 mg/kg” value in the data set on yeast-induced pyrexia is listed as 1.7** ° C. Further, the “Repression rate (%) Dosage 10 mg/kg” value in the data set with adjuvant arthritis stood at 47%.
